Source: patent US20210106574A1, “Methods of Treating Cancer” (Tesaro, Inc., priority 2017, published 2021)
Counter-ions that a name gives are not always drawn. Like-named read-outs stand apart in the source and are kept apart here.

Assays:
[1] = tested on: MDA-MB-436, CAPAN-1, GRANTA-519, OVCAR3, HT29 and DLD-1, patient derived Ewing's sarcoma, and TNBC xenograft models; conditions: xenograft models in mice; cited from earlier work
HRR mutant PDX models = tested on: HRR mutant PDX models
Method: The relative contribution of the loss of BRCA and non-BRCA HRR genes to PARP synthetic lethality in additional indications other than ovarian and breast was also evaluated. To this end, CRISPR/Cas9 technology was utilized to knock-out either the single or both alleles of 11 clinically-relevant HR genes in two different genetic backgrounds.

[2] = tested on: cancer cell lines silenced for or carrying mutations of BRCA-1 or BRCA-2; Ewing's sarcoma, ALL, NSCLC, SCLC and ATM-inactivated tumor cell lines; conditions: cell lines silenced for BRCA-1 or BRCA-2 or carrying BRCA-1 or BRCA-2 mutations compared to wild type counterparts; cited from earlier work
[3] = tested on: platinum-sensitive recurrent ovarian cancer patients
Method: Two cohorts were treated: the germline BRCA mutant positive cohort (gBRCAmut) and the non-germline BRCA cohort (non-gBRCAmut). […] Patients in this cohort were germline BRCA mutation carriers as assessed by the FDA-approved Integrated BRACAnalysis test. Patients in the non-gBRCAmut were negative in the FDA-approved Integrated BRACAnalysis test.
This objective is independently evaluated in a cohort of patients with germline BRCA mutation (gBRCAmut) and in a cohort of patients who have high grade serous or high grade predominantly serous histology but without such gBRCA mutations (non-gBRCAmut). […] Accordingly, HRD is used as a tumor biomarker classifier to be evaluated.
Study treatment was dispensed to patients on Day 1 and every cycle (28 days) thereafter until the patient discontinued study treatment. Study treatment was administered orally once daily continuously. Three capsules of 100 mg strength were taken at each dose administration. Clinic visits occurred in each cycle (every 4 weeks 3 days). Response evaluation criteria in solid tumors (RECIST) tumor assessment via computed tomography (CT) or magnetic resonance imaging (MRI) scan of abdomen/pelvis and clinically indicated areas was required at the end of every 2-cycles (8-weeks with a window of 7 days from date of visit) through Cycle 14, then at the end of every 3-cycles (12-weeks with a window of 7 days from date of visit) until progression.
Patients were assessed by the prolongation of progression-free survival (PFS). […] Response Evaluation Criteria in Solid Tumors (RECIST) was used for tumor assessment via a computed tomography (CT) or magnetic resonance imaging (MRI) scan of abdomen/pelvis and clinically indicated areas, which was required at the end of every 2-cycles (8-weeks) through cycle 14 (56-weeks), and then at the end of every 3-cycles (12-weeks) until progression.
Following completion of the NOVA study, formalin-fixed, paraffin-embedded (FFPE) archival tumor samples from NOVA patients were retrospectively analyzed using a pre-specified gene panel. […]

[4] = tested on: HRR11 KO isogenic Dld-1 cell lines; conditions: bi-allelic mutations in BRCA1, BRCA2, PALB2 and ATM (FIG. 5)
Method: CRISPR/Cas9 technology was used to knock-out either the single or both alleles of 11 clinically-relevant HR genes in two different genetic backgrounds, using Dld-1 and HeLa cell lines. […] Compounds were added 24 h after cell seeding, and then every 3- to 4-days (2-times a week) during the incubation period (for 13-days incubation period).

PARP activity = conditions: stimulated by hydrogen peroxide, various cell lines, cited from earlier work
ovarian cancer patients = conditions: cited from earlier work
[5] = tested on: patients with advanced BRCA-mutant ovarian cancer; conditions: cited from earlier work
[6] = ATM bi-allelic mutant NSCLC PDX models
[7] = 106 patients, 600 mg orally twice daily

For `Cc1ccc(S(=O)(=O)O)cc1.NC(=O)c1cccc2cn(-c3ccc([C@@H]4CCCNC4)cc3)nc12` [Niraparib, (3S)-3-[4-{7-(aminocarbonyl)-2H-indazol-2-yl}phenyl]piperidine], the “models sensitive to niraparib” value (NSCLC PDX models; [6]) is given as 2 out of 8, the “models sensitive to niraparib” value (NSCLC PDX models; HRR WT NSCLC PDX models (3 out of 40)) is given as 7.5% and the antitumor activity [1] is given as “strong antitumor activity”. For the same compound, the “PDX models with strong sensitivity, TGI>70%” value (HRR mutant PDX models; [6]) was 33%, the “PDX models with moderate sensitivity, TGI≥50%” value (HRR mutant PDX models; ATM bi-allelic mutant PDX models) was 14% and the “PDX models with TGI≥50%” value (HRR mutant PDX models; ATM monoallelic mutant PDX models) was 0/6. For the same compound, the “models sensitive with ≥50% TGI” value (HRR mutant PDX models; BAP bi-allelic mutations, across 5-tumor types) was 36%, the “PDX models with moderate sensitivity, ≥50% TGI” value (HRR mutant PDX models; BRCA1/2 bi-allelic mutant PDX models) was 43% and the “PDX models with moderate sensitivity, TGI≥50%” value (HRR mutant PDX models; BRCA2 bi-allelic mutant PDX models) was 43%. For the same compound, the “PDX models with >100% TGI” value (HRR mutant PDX models; OvCa PDX models) was 80%, the “PDX models with strong sensitivity” value (HRR mutant PDX models; PALB2 monoallelic mutant PDX models (1/6)) was 17% and the “niraparib sensitivity based on total growth inhibition (TGI)” value (HRR mutant PDX models; bi-allelic mutations in BRCA1, BRCA2, PALB2 and ATM (FIG. 4)) was “strongest niraparib sensitivity”. For the same compound, the TGI (HRR mutant PDX models; sensitive PALB2 monoallelic mutant PDX model) was 93%, the anti-proliferative activity [2] was “selective anti-proliferative activity” and the “Median Progression Free Survival (PFS)” value ([3]; Non-tBRCA1/2 HRR mutant) was 15.7. For the same compound, the “Median Progression Free Survival (PFS)” value ([3]; tBRCA1/2 mutant) was 15.4, the “effectiveness of niraparib treatment” value ([3]; tBRCA wildtype patients with at least one mutation in 31 DDR gene panel compared to no mutation) was “similarly effective” and the “niraparib sensitivity based on total growth inhibition (TGI)” value [4] was “strongest niraparib sensitivity”. The IC50 (PARP activity; read-out: IC50, PARP activity in cells) was roughly 4 nM and the IC90 (PARP activity; read-out: inhibitory concentration at 90% of control (IC90), PARP activity in cells) was roughly 50 nM.
For `O=C(c1cc(Cc2n[nH]c(=O)c3ccccc23)ccc1F)N1CCN(C(=O)C2CC2)CC1` [olaparib, 4-[(3-{[4-(cyclopropylcarbonyl)piperazin-1-yl]carbonyl}-4-fluorophenyl)methyl]phthalazin-1(2H)-one], the responses (ovarian cancer patients; in 17 patients with BRCA1 or BRCA2 mutations) is given as 7 responses and the responses (ovarian cancer patients; in the 46 who did not have these mutations) is given as 11 responses.
For `CNCc1ccc(-c2[nH]c3cc(F)cc4c3c2CCNC4=O)cc1` [rucaparib, 8-fluoro-2-{4-[(methylamino)methyl]phenyl}-1,3,4,5-tetrahydro-6H-azepino[5,4,3-cd]indol-6-one ((1S,4R)-7,7-dimethyl-2-oxobicyclo[2.2.1]hept-1-yl)methanesulfonic acid salt], the “Response assessment by independent radiology review” value [5, 7] is given as 42%, the “median DOR” value [5, 7] is given as 6.7 months and the “Investigator-assessed ORR” value ([5]; platinum-refractory patients) is given as 0%. The “Investigator-assessed ORR” value ([5]; platinum-resistant patients) was 25% and the “Investigator-assessed ORR” value ([5]; platinum-sensitive patients) was 66%.
